# Data reported in US10772847B1, “Combinational fendiline formulations and uses thereof” (UNIVERSITY OF SOUTH FLORIDA, priority 2016, dated 2020).
# What was measured:
# [1] = system: P-Aurora ABC; assay: Fluorescent microscopy of p-Aurora ABC in CD18 cells; format: cell-based; conditions: about 24 hours of treatment, FIGS. 26A-26C
# Experimental: FIGS. 26A-26C show fluorescent microscopic images of CD18 cells treated with fendiline or Tivantinib as compared to untreated after about 24 hours of treatment and staining with antibodies against p-Aurora ABC or a-tubulin and counterstained with Hoechst.
# [2] = system: cancer cells; conditions: shown earlier (introduction); cited from earlier work
# [3] = system: ADAM10; conditions: shown recently (introduction); cited from earlier work
smiles,measurement,setting,value
CC(NCCC(c1ccccc1)c1ccccc1)c1ccccc1 (stereo not drawn) [fendiline],aurora ABC phosphorylation,[1],inhibit
same,cytotoxicity in cancer cells,[2],induces cytotoxicity
same,ADAM10 inhibition,[3],inhibits
